Columns and labels:
[1] = system: Human immunodeficiency virus 1; assay: Selectivity for HIV1 integrase over HIV1 reverse transcriptase
[2] = Elimination half life in po dosed human; type: ADME, organism-based; conditions: in vivo, read-out: beta t1/2 (converted)

For `O=C(/C=C/c1ccc(O)c(O)c1)O[C@@H]1C[C@](O)(C(=O)O)C[C@@H](OC(=O)/C=C/c2ccc(O)c(O)c2)[C@H]1O`, the fold change (FC) [1] was 10.
Work on `CCCc1cc(=O)oc2c3c(c4c(c12)OC(C)(C)C=C4)O[C@H](C)[C@@H](C)[C@@H]3O` [CALANOLIDE A] yielded a half-life [2] of 15 h.
Compound `O=C(/C=C/c1ccc(O)c(O)c1)O[C@@H](C(=O)O)[C@@H](OC(=O)/C=C/c1ccc(O)c(O)c1)C(=O)O` has a fold change (FC) [1] of 10.
